In ChEMBL document CHEMBL3608278 (J Med Chem, 2015):
Bridge positions count the residues as written; N and C are the ends. Square brackets hold non-standard residues; d marks the D form. Peptide text beside a SMILES is read from it. 1Nal = N[C@@H](Cc1cccc2ccccc12)C(=O)O

Key:
[1] = target: T1, Potassium voltage-gated channel subfamily A member 3 (Homo sapiens, UniProt P22001); format: cell-based, CHO-K1
[2] = target: T1, Potassium voltage-gated channel subfamily A member 3; assay: cell-based; parameters: species or system Blood
[3] = target: T1, Potassium voltage-gated channel subfamily A member 3; parameters: species or system Blood

T1 sequence (P22001 whole entry): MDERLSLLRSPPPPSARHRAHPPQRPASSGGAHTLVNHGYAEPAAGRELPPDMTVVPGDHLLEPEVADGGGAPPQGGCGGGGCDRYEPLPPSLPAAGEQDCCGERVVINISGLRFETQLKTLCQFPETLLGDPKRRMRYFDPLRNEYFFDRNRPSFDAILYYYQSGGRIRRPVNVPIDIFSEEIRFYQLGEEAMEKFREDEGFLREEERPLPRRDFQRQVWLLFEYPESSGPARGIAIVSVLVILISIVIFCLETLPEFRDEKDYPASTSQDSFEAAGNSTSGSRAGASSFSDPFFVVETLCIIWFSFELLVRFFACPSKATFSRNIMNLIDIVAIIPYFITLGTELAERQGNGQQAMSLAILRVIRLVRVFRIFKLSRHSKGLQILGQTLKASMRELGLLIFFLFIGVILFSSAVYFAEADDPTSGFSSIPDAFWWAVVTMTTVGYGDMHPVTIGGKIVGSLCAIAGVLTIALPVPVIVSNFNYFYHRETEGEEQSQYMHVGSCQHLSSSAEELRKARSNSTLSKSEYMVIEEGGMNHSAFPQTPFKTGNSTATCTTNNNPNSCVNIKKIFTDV

| IC50 [1] | IC50 [2] | IC50 [3] | SMILES | IC50 ([1]; cho-k1) |
| --- | --- | --- | --- | --- |
| 0.11 nM | 0.036 nM | 0.132 nM | CC[C@H](C)[C@@H]1NC(=O)[C@@H](NC(=O)[C@H](CO)NC(=O)[C@@H](N)CCCNC(=N)N)CSSC[C@@H](C(=O)O)NC(=O)[C@H]([C@@H](C)O)NC(=O)CNC(=O)[C@@H]2CSSC[C@@H]3NC(=O)[C@H](CCC(N)=O)NC(=O)[C@H](Cc4ccccc4)NC(=O)[C@H](CCC(=O)O)NC(=O)[C@H]([C@@H](C)O)NC(=O)[C@H](CSSC[C@H](NC(=O)[C@H](Cc4ccccc4)NC(=O)[C@H](CO)NC(=O)[C@H](CC(C)C)NC(=O)[C@H](CCCNC(=N)N)NC(=O)[C@H](Cc4ccc(O)cc4)NC(=O)[C@H](CCCCN)NC(=O)[C@H](CCSC)NC(=O)[C@H](CO)NC(=O)[C@H](Cc4cnc[nH]4)NC(=O)[C@H](CCCCN)NC3=O)C(=O)N[C@@H](CCCNC(=N)N)C(=O)N[C@@H](CCCCN)C(=O)N[C@@H]([C@@H](C)O)C(=O)N2)NC(=O)[C@H](CCCNC(=N)N)NC(=O)[C@H](CO)NC(=O)[C@H](CCCCN)NC(=O)[C@@H]2CCCN2C(=O)[C@H]([C@@H](C)CC)NC(=O)[C@H]([C@@H](C)O)NC(=O)[C@H](Cc2cccc3ccccc23)NC1=O (H-RSCI[1Nal]TIPKSRCTEFQCKHSMKYRLSFCRKTCGTC-OH; disulfide 3-35, 12-28, 17-32) | – |
| 0.234 nM | 0.242 nM | 0.309 nM | CC[C@H](C)[C@@H]1NC(=O)[C@@H](NC(=O)[C@H](CO)NC(=O)[C@@H](N)CCCNC(=N)N)CSSC[C@@H](C(=O)O)NC(=O)[C@H]([C@@H](C)O)NC(=O)CNC(=O)[C@@H]2CSSC[C@@H]3NC(=O)[C@H](CCC(N)=O)NC(=O)[C@H](Cc4ccccc4)NC(=O)[C@H](C)NC(=O)[C@H]([C@@H](C)O)NC(=O)[C@H](CSSC[C@H](NC(=O)[C@H](Cc4ccccc4)NC(=O)[C@H](CO)NC(=O)[C@H](CC(C)C)NC(=O)[C@H](CCCNC(=N)N)NC(=O)[C@H](Cc4ccc(O)cc4)NC(=O)[C@H](CCCCN)NC(=O)[C@H](CCSC)NC(=O)[C@H](CO)NC(=O)[C@H](Cc4cnc[nH]4)NC(=O)[C@H](CCCCN)NC3=O)C(=O)N[C@@H](CCCNC(=N)N)C(=O)N[C@@H](CCCCN)C(=O)N[C@@H](CCC(=O)O)C(=O)N2)NC(=O)[C@H](CCCNC(=N)N)NC(=O)[C@H](CO)NC(=O)[C@H](CCCCN)NC(=O)[C@@H]2CCCN2C(=O)[C@H]([C@@H](C)CC)NC(=O)[C@H]([C@@H](C)O)NC(=O)[C@H](CC(=O)O)NC1=O | – |
| 0.039 nM | 0.089 nM | 0.11 nM | CC[C@H](C)[C@@H]1NC(=O)[C@@H](NC(=O)[C@H](CO)NC(=O)[C@@H](N)CCCNC(=N)N)CSSC[C@@H](C(=O)O)NC(=O)[C@H]([C@@H](C)O)NC(=O)CNC(=O)[C@@H]2CSSC[C@@H]3NC(=O)[C@H](CCC(N)=O)NC(=O)[C@H](Cc4ccccc4)NC(=O)[C@H](Cc4cccc5ccccc45)NC(=O)[C@H]([C@@H](C)O)NC(=O)[C@H](CSSC[C@H](NC(=O)[C@H](Cc4ccccc4)NC(=O)[C@H](CO)NC(=O)[C@H](CC(C)C)NC(=O)[C@H](CCCNC(=N)N)NC(=O)[C@H](Cc4ccc(O)cc4)NC(=O)[C@H](CCCCN)NC(=O)[C@H](CCSC)NC(=O)[C@H](CO)NC(=O)[C@H](Cc4cnc[nH]4)NC(=O)[C@H](CCCCN)NC3=O)C(=O)N[C@@H](CCCNC(=N)N)C(=O)N[C@@H](CCCCN)C(=O)N[C@@H]([C@@H](C)O)C(=O)N2)NC(=O)[C@H](CCCNC(=N)N)NC(=O)[C@H](CO)NC(=O)[C@H](CCCCN)NC(=O)[C@@H]2CCCN2C(=O)[C@H]([C@@H](C)CC)NC(=O)[C@H]([C@@H](C)O)NC(=O)[C@H](Cc2cccc3ccccc23)NC1=O (H-RSCI[1Nal]TIPKSRCT[1Nal]FQCKHSMKYRLSFCRKTCGTC-OH; disulfide 3-35, 12-28, 17-32) | – |
| 0.095 nM | 0.114 nM | 0.282 nM | CC[C@H](C)[C@@H]1NC(=O)[C@@H](NC(=O)[C@H](CO)NC(=O)[C@@H](N)CCCNC(=N)N)CSSC[C@@H](C(=O)O)NC(=O)[C@H]([C@@H](C)O)NC(=O)CNC(=O)[C@@H]2CSSC[C@@H]3NC(=O)[C@H](CCC(N)=O)NC(=O)[C@H](Cc4ccccc4)NC(=O)[C@H](C)NC(=O)[C@H]([C@@H](C)O)NC(=O)[C@H](CSSC[C@H](NC(=O)[C@H](Cc4ccccc4)NC(=O)[C@H](CO)NC(=O)[C@H](CC(C)C)NC(=O)[C@H](CCCNC(=N)N)NC(=O)[C@H](Cc4ccc(O)cc4)NC(=O)[C@H](CCCCN)NC(=O)[C@H](CCSC)NC(=O)[C@H](CO)NC(=O)[C@H](CCCNC(=N)N)NC(=O)[C@H](CCCCN)NC3=O)C(=O)N[C@@H](CCCNC(=N)N)C(=O)N[C@@H](CCCCN)C(=O)N[C@@H]([C@@H](C)O)C(=O)N2)NC(=O)[C@H](CCCNC(=N)N)NC(=O)[C@H](CO)NC(=O)[C@H](CCCCN)NC(=O)[C@@H]2CCCN2C(=O)[C@H]([C@@H](C)CC)NC(=O)[C@H]([C@@H](C)O)NC(=O)[C@H](CC(=O)O)NC1=O | – |
| > 3.33 nM | > 100 nM | > 100 nM | CC[C@H](C)[C@@H]1NC(=O)[C@@H](NC(=O)[C@H](CO)NC(=O)[C@@H](N)CCCNC(=N)N)CSSC[C@@H](C(=O)O)NC(=O)[C@H]([C@@H](C)O)NC(=O)CNC(=O)[C@@H]2CSSC[C@@H]3NC(=O)[C@H](CCC(N)=O)NC(=O)[C@H](Cc4ccccc4)NC(=O)[C@H](C)NC(=O)[C@H]([C@@H](C)O)NC(=O)[C@H](CSSC[C@H](NC(=O)[C@H](Cc4ccccc4)NC(=O)[C@H](CO)NC(=O)[C@H](CC(C)C)NC(=O)[C@H](CCCNC(=N)N)NC(=O)[C@H](CCC(=O)O)NC(=O)[C@H](CCCCN)NC(=O)[C@H](CCSC)NC(=O)[C@H](CO)NC(=O)[C@H](Cc4cnc[nH]4)NC(=O)[C@H](CCCCN)NC3=O)C(=O)N[C@@H](CCCNC(=N)N)C(=O)N[C@@H](CCCCN)C(=O)N[C@@H]([C@@H](C)O)C(=O)N2)NC(=O)[C@H](CCCNC(=N)N)NC(=O)[C@H](CO)NC(=O)[C@H](CCCCN)NC(=O)[C@@H]2CCCN2C(=O)[C@H]([C@@H](C)CC)NC(=O)[C@H]([C@@H](C)O)NC(=O)[C@H](CC(=O)O)NC1=O | – |

| SMILES | IC50 [1] | IC50 [2] | IC50 [3] | IC50 ([1]; cho-k1) |
| --- | --- | --- | --- | --- |
| CC[C@H](C)[C@@H]1NC(=O)[C@@H](NC(=O)[C@H](CO)NC(=O)[C@@H](N)CCCNC(=N)N)CSSC[C@@H](C(=O)O)NC(=O)[C@H]([C@@H](C)O)NC(=O)CNC(=O)[C@@H]2CSSC[C@@H]3NC(=O)[C@H](CCCCN)NC(=O)[C@H](Cc4ccccc4)NC(=O)[C@H](C)NC(=O)[C@H]([C@@H](C)O)NC(=O)[C@H](CSSC[C@H](NC(=O)[C@H](Cc4ccccc4)NC(=O)[C@H](CO)NC(=O)[C@H](CC(C)C)NC(=O)[C@H](CCCNC(=N)N)NC(=O)[C@H](Cc4ccc(O)cc4)NC(=O)[C@H](CCCCN)NC(=O)[C@H](CCCCN)NC(=O)[C@H](CO)NC(=O)[C@H](Cc4cnc[nH]4)NC(=O)[C@H](CCCCN)NC3=O)C(=O)N[C@@H](CCCNC(=N)N)C(=O)N[C@@H](CCCCN)C(=O)N[C@@H]([C@@H](C)O)C(=O)N2)NC(=O)[C@H](CCCNC(=N)N)NC(=O)[C@H](CO)NC(=O)[C@H](CCCCN)NC(=O)[C@@H]2CCCN2C(=O)[C@H]([C@@H](C)CC)NC(=O)[C@H]([C@@H](C)O)NC(=O)[C@H](CC(=O)O)NC1=O | – | 0.249 nM | 5.68 nM | 0.13 nM |
| CC[C@H](C)[C@@H]1NC(=O)[C@@H](NC(=O)[C@H](CO)NC(=O)[C@@H](N)CCCNC(=N)N)CSSC[C@@H](C(=O)O)NC(=O)[C@H]([C@@H](C)O)NC(=O)CNC(=O)[C@@H]2CSSC[C@@H]3NC(=O)[C@H](CCC(N)=O)NC(=O)[C@H](Cc4ccccc4)NC(=O)[C@H](C)NC(=O)[C@H]([C@@H](C)O)NC(=O)[C@H](CSSC[C@H](NC(=O)[C@H](Cc4ccccc4)NC(=O)[C@H](CO)NC(=O)[C@H](CC(C)C)NC(=O)[C@H](CCCNC(=N)N)NC(=O)[C@H](Cc4ccc(O)cc4)NC(=O)[C@H](CCCCN)NC(=O)[C@H](CCSC)NC(=O)[C@H](CO)NC(=O)[C@H](Cc4cnc[nH]4)NC(=O)[C@H](CCCCN)NC3=O)C(=O)N[C@@H](CCCNC(=N)N)C(=O)N[C@@H](CCCCN)C(=O)N[C@@H]([C@@H](C)O)C(=O)N2)NC(=O)[C@H](CCCNC(=N)N)NC(=O)[C@H](CCCCN)NC(=O)[C@H](CCCCN)NC(=O)[C@@H]2CCCN2C(=O)[C@H]([C@@H](C)CC)NC(=O)[C@H]([C@@H](C)O)NC(=O)[C@H](CC(=O)O)NC1=O | 0.184 nM | 0.052 nM | 0.082 nM | – |
| CC[C@H](C)[C@@H]1NC(=O)[C@@H](NC(=O)[C@H](CO)NC(=O)[C@@H](N)CCCNC(=N)N)CSSC[C@@H](C(=O)O)NC(=O)[C@H]([C@@H](C)O)NC(=O)CNC(=O)[C@@H]2CSSC[C@@H]3NC(=O)[C@H](CCC(N)=O)NC(=O)[C@H](Cc4ccccc4)NC(=O)[C@H](C)NC(=O)[C@H]([C@@H](C)O)NC(=O)[C@H](CSSC[C@H](NC(=O)[C@H](Cc4ccccc4)NC(=O)[C@H](CO)NC(=O)[C@H](CC(C)C)NC(=O)[C@H](CCCNC(=N)N)NC(=O)[C@H](Cc4ccc(O)cc4)NC(=O)[C@H](CCCCN)NC(=O)[C@H](CCSC)NC(=O)[C@H](CO)NC(=O)[C@H](Cc4cnc[nH]4)NC(=O)[C@H](CCCCN)NC3=O)C(=O)N[C@@H](CCCNC(=N)N)C(=O)N[C@@H](CCCCN)C(=O)N[C@@H]([C@@H](C)O)C(=O)N2)NC(=O)[C@H](CCCNC(=N)N)NC(=O)[C@H](CO)NC(=O)[C@H](CCCCN)NC(=O)[C@H](C)NC(=O)[C@H]([C@@H](C)CC)NC(=O)[C@H]([C@@H](C)O)NC(=O)[C@H](CC(=O)O)NC1=O | 0.079 nM | 0.034 nM | 0.066 nM | – |
